The test deals with T1, human TRPC6 (Homo sapiens, UniProt Q9Y210).
T1 construct: expressed in transfected cells
T1 sequence (Q9Y210 1-931): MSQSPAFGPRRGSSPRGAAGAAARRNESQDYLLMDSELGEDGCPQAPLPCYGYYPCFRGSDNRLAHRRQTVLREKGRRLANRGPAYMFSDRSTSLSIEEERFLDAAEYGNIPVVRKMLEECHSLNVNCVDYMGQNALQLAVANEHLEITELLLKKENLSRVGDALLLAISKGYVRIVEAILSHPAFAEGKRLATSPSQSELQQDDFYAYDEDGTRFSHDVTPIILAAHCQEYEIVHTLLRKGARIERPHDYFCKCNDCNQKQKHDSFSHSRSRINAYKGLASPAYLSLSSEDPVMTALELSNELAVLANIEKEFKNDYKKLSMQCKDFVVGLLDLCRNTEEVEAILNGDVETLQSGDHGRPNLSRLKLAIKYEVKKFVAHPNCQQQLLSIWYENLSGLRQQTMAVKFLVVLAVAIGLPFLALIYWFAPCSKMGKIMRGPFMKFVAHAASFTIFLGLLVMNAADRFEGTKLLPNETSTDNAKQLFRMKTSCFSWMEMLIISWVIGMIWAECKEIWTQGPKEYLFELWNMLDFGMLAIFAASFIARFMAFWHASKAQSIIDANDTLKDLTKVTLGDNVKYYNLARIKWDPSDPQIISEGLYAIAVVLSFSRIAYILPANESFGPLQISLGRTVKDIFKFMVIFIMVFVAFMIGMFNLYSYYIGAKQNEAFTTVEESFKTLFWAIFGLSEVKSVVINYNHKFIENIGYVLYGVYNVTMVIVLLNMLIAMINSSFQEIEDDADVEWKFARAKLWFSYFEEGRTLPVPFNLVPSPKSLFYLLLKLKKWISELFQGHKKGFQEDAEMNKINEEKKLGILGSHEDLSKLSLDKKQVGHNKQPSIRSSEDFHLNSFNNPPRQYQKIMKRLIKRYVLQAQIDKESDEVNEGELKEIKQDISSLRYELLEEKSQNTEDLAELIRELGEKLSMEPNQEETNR
In words: TRPC6 calcium flux assay (FLIPR, OAG-stimulated calcium influx). It counts as cell-based. The conditions noted are these: HEK293 cells stably transfected with human TRPC6, read-out: hTRPC6 Potency. A digest of the protocol: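 HEK293 cells stably expressing human TRPC6, loaded with calcium dye 90–120 min at RT, then given compound for 25 min before OAG (50 uM final, 0.5% DMSO) in HEPES buffer pH 7.2 with 2 mM CaCl2. Background-subtracted FLIPR peak over 180 s normalized to OAG vs buffer; IC50 from dose plot.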

For the molecule `C[C@@H](CC#N)NC(=O)Cn1c(N2CC[C@@H](F)[C@H](N)C2)nc2ccc(F)cc21` [Example 669, 2-(2-((3R,4R)-3-amino-4-fluoropiperidin-1-yl)-6-fluoro-1H-benzo[d]imidazol-1-yl)-N-((S)-1-cyanopropan-2-yl)acetamide], the IC50 is 0.901 µM. Turning to `C[C@H](CC#N)NC(=O)Cn1c(N2CC[C@@H](F)[C@H](N)C2)nc2ccc(F)cc21` [Example 670, 2-(2-((3R,4R)-3-amino-4-fluoropiperidin-1-yl)-6-fluoro-1H-benzo[d]imidazol-1-yl)-N-((R)-1-cyanopropan-2-yl)acetamide], the IC50 stood at 1.12 µM. As for `CCN(CCOC)C(=O)Cn1c(N2CC[C@@H](F)[C@H](N)C2)nc2ccc(F)cc21` [Example 671, 2-(2-((3R,4R)-3-amino-4-fluoropiperidin-1-yl)-6-fluoro-1H-benzo[d]imidazol-1-yl)-N-ethyl-N-(2-methoxyethyl)acetamide], the IC50 stood at 1.43 µM. As to `N[C@@H]1CN(c2nc3ccc(F)cc3n2CC(=O)N(CC(F)(F)F)[C@@H]2CCOC2)CC[C@H]1F` [Example 672], the IC50 was 1.66 µM.

As to `N[C@@H]1CN(c2nc3ccc(F)cc3n2CC(=O)NCCC(F)(F)F)CC[C@H]1F` [Example 673, 2-(2-((3R,4R)-3-amino-4-fluoropiperidin-1-yl)-6-fluoro-1H-benzo[d]imidazol-1-yl)-N-(3,3,3-trifluoropropyl)acetamide], the IC50 is more than 3.75 µM. `C[C@@H](NC(=O)Cn1c(N2CC[C@@H](F)[C@H](N)C2)nc2ccc(F)cc21)c1ccccn1` [Example 674, 2-(2-((3R,4R)-3-amino-4-fluoropiperidin-1-yl)-6-fluoro-1H-benzo[d]imidazol-1-yl)-N-((R)-1-(pyridin-2-yl)ethyl)acetamide]: the IC50 is more than 1.75 µM.

On to `N[C@@H]1CN(c2nc3ccc(F)cc3n2CC(=O)N[C@H]2CCOC2)CC[C@H]1F` [Example 675, 2-(2-((3R,4R)-3-amino-4-fluoropiperidin-1-yl)-6-fluoro-1H-benzo[d]imidazol-1-yl)-N-((S)-tetrahydrofuran-3-yl)acetamide], for which the IC50 was more than 3.75 µM. As for `N[C@@H]1CN(c2nc3ccc(F)cc3n2CC(=O)N[C@@H]2CCOC2)CC[C@H]1F` [Example 676, 2-(2-((3R,4R)-3-amino-4-fluoropiperidin-1-yl)-6-fluoro-1H-benzo[d]imidazol-1-yl)-N-((R)-tetrahydrofuran-3-yl)acetamide], the figure is more than 3.75 µM; as for `CC1CCN1C(=O)Cn1c(N2CC[C@@H](F)[C@H](N)C2)nc2ccc(F)cc21` (stereo partly drawn) [Example 677, 2-(2-((3R,4R)-3-amino-4-fluoropiperidin-1-yl)-6-fluoro-1H-benzo[d]imidazol-1-yl)-1-(2-methylazetidin-1-yl)ethan-1-one], 0.0881 µM; as for `C[C@H]1COCCN1C(=O)Cn1c(N2CC[C@@H](F)[C@H](N)C2)nc2ccc(F)cc21` [Example 678, 2-(2-((3R,4R)-3-amino-4-fluoropiperidin-1-yl)-6-fluoro-1H-benzo[d]imidazol-1-yl)-1-((S)-3-methylmorpholino)ethan-1-one], 0.0983 µM. Take `COC[C@@H]1COCCN1C(=O)Cn1c(N2CC[C@@H](F)[C@H](N)C2)nc2ccc(F)cc21` [Example 680, 2-(2-((3R,4R)-3-amino-4-fluoropiperidin-1-yl)-6-fluoro-1H-benzo[d]imidazol-1-yl)-1-((R)-3-(methoxymethyl)morpholino) ethan-1-one]: the IC50 is 0.153 µM. On to `C[C@@H]1COCCN1C(=O)Cn1c(N2CC[C@@H](F)[C@H](N)C2)nc2ccc(F)cc21` [Example 681, 2-(2-((3R,4R)-3-amino-4-fluoropiperidin-1-yl)-6-fluoro-1H-benzo[d]imidazol-1-yl)-1-((R)-3-methylmorpholino)ethan-1-one], for which the IC50 is 0.168 µM.

Turning to `C[C@H]1CCCN1C(=O)Cn1c(N2CC[C@@H](F)[C@H](N)C2)nc2ccc(F)cc21` [Example 682, 2-(2-((3R,4R)-3-amino-4-fluoropiperidin-1-yl)-6-fluoro-1H-benzo[d]imidazol-1-yl)-1-((S)-2-methylpyrrolidin-1-yl)ethan-1-one], the IC50 was 0.259 µM. As to `CC1COCC(C)N1C(=O)Cn1c(N2CC[C@@H](F)[C@H](N)C2)nc2ccc(F)cc21` (stereo partly drawn) [Example 683, 2-(2-((3R,4R)-3-amino-4-fluoropiperidin-1-yl)-6-fluoro-1H-benzo[d]imidazol-1-yl)-1-(3,5-dimethylmorpholino)ethan-1-one], the IC50 is 0.29 µM.

For `CCC1COCCN1C(=O)Cn1c(N2CC[C@@H](F)[C@H](N)C2)nc2ccc(F)cc21` (stereo partly drawn) [Example 684, 2-(2-((3R,4R)-3-amino-4-fluoropiperidin-1-yl)-6-fluoro-1H-benzo[d]imidazol-1-yl)-1-(3-ethylmorpholino)ethan-1-one], the IC50 stood at 0.524 µM. Turning to `N[C@@H]1CN(c2nc3ccc(F)cc3n2CC(=O)N2CCOC[C@@H]2C2CC2)CC[C@H]1F` [Example 685, 2-(2-((3R,4R)-3-amino-4-fluoropiperidin-1-yl)-6-fluoro-1H-benzo[d]imidazol-1-yl)-1-((S)-3-cyclopropylmorpholino)ethan-1-one], the IC50 was 1.16 µM. `N[C@@H]1CN(c2nc3ccc(F)cc3n2CC(=O)N2CCOC[C@H]2CO)CC[C@H]1F` [Example 686, 2-(2-((3R,4R)-3-amino-4-fluoropiperidin-1-yl)-6-fluoro-1H-benzo[d]imidazol-1-yl)-1-((R)-3-(hydroxymethyl)morpholino) ethan-1-one]: the IC50 turned out to be 1.57 µM.

With `CC1(C)COCCN1C(=O)Cn1c(N2CC[C@@H](F)[C@H](N)C2)nc2ccc(F)cc21` [Example 687, 2-(2-((3R,4R)-3-amino-4-fluoropiperidin-1-yl)-6-fluoro-1H-benzo[d]imidazol-1-yl)-1-(3,3-dimethylmorpholino)ethan-1-one], the IC50 was determined as 2.08 µM.

With “(3R,4R)-4-fluoro-1-(6- fluoro-1-((4- methoxypyridin-2- yl)methyl)-1H- benzo[d]imidazol-2- yl)piperidin-3-amine [Example 517]”, the IC50 worked out at 0.319 µM.

These data come from US11332459B2 (TEIJIN PHARMA LIMITED, priority 2017, dated 2022).
